{"source": "patent US20250367225A1", "about": "(priority 2022, published 2025)", "key": {"[1]": {"system": "SARS-COV-2 Delta variant (B.1.617.2)", "design": "species or system Syrian hamsters", "details": "hamster, in vivo"}, "[2]": {"system": "SARS-COV-2 Omicron BA.1 variant (B.1.1.529)", "design": "species or system BALB/c mice", "details": "mouse, in vivo"}}}
{"smiles": "CCCCCCCCCCCCCC[C@@H](O)[C@@H](O)[C@H](CO[C@H]1O[C@H](CO)[C@H](O)[C@H](O)[C@H]1O)NC(=O)CCCCCCCCCCc1ccc(F)cc1", "note": "[7DW8-5]", "values": [{"measurement": "viral load in lung tissues", "setting": "[1]", "result": "significantly decreased"}, {"measurement": "viral load in nasal tissues", "setting": "[1]", "result": "significantly decreased"}, {"measurement": "body weight", "setting": "[2]", "result": "significant weight gain"}, {"measurement": "virus replication in lung tissues", "setting": "[2]", "result": "complete inhibition"}]}
